{
  "source": "patent US12441754B2",
  "about": "“Galactoside inhibitor of galectins” (GALECTO BIOTECH AB, priority 2019, dated 2025)",
  "key": {"Galectin-3": {"target": "Galectin-3 (Homo sapiens, UniProt P17931)", "sequence (P17931 whole entry)": "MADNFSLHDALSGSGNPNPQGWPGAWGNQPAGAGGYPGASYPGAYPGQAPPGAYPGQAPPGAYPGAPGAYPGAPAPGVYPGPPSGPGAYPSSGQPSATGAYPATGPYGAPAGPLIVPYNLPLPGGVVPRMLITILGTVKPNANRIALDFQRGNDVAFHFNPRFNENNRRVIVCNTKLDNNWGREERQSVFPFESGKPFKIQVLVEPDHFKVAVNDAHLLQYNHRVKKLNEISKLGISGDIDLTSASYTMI", "assay": "fluorescence anisotropy assay, compound as inhibitor of galectin / fluorescein tagged saccharide probe interaction", "type": "binding", "source_text": "(§1) Anal. Biochem. 334: 36-47, (Sörme et al., 2004) and Monovalent interactions of Galectin-1 By Salomonsson, Emma; Larumbe, Amaia; Tejler, Johan; Tullberg, Erik; Rydberg, Hanna; Sundin, Anders; Khabut, Areej; Frejd, Torbjorn; Lobsanov, Yuri D.; Rini, James M.; et al, From Biochemistry (2010), 49(44), 9518-9532, (Salomonsson et al., 2010)."}, "Galectin-1": {"target": "Galectin-1 (Homo sapiens, UniProt P09382)", "sequence (P09382 whole entry)": "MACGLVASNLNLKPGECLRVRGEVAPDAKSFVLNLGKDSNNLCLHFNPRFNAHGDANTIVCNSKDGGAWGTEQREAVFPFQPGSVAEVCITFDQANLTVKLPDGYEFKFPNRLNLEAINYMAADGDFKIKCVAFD", "assay": "fluorescence anisotropy assay, compound as inhibitor of galectin / fluorescein tagged saccharide probe interaction", "type": "binding", "source_text": "as §1"}},
  "note": "pKd: −log10 of the molar value. Like-named read-outs stand apart in the source and are kept apart here.",
  "data": [
    {"smiles": "CO[C@@H]1[C@@H](n2cc(-c3csc(N)n3)nn2)[C@@H](O)[C@@H](CO)O[C@@H]1Sc1cc(Cl)cnc1-c1ncco1", "note": "[Example 27, 5-Chloro-2-(oxazol-2-yl)pyridin-3-yl 3-[4-(2-aminothiazol-4-yl)-1H-1,2,3-triazol-1-yl]-3-deoxy-2-O-methyl-1-thio-α-D-galactopyranoside]", "values": [
      {"measurement": "pKd", "setting": "Galectin-3", "result": 5.49},
      {"measurement": "pKd", "setting": "Galectin-1", "result": 7.55}
    ]},
    {"smiles": "COC1C(n2cc(-c3csc(N)n3)nn2)[C@@H](O)C(CO)O[C@@H]1Sc1ccc(Cl)c(Cl)c1", "note": "(stereo partly drawn) [Example 28, 3,4-Dichlorphenyl 3-[4-(2-aminothiazol-4-yl)-1H-1,2,3-triazol-1-yl]-3-deoxy-2-O-methyl-1-thio-α-D-galactopyranoside]", "values": [
      {"measurement": "pKd", "setting": "Galectin-3", "result": 5.62},
      {"measurement": "pKd", "setting": "Galectin-1; read-out: Galectin-1 Kd", "result": 7.20}
    ]},
    {"smiles": "CO[C@@H]1[C@@H](n2cc(-c3csc(N)n3)nn2)[C@@H](O)[C@@H](CO)O[C@@H]1Sc1cc(Cl)cnc1-c1nccs1", "note": "[Example 29, 5-Chloro-2-(thiazol-2-yl)pyridin-3-yl 3-[4-(2-aminothiazol-4-yl)-1H-1,2,3-triazol-1-yl]-3-deoxy-2-O-methyl-1-thio-α-D-galactopyranoside]", "values": [
      {"measurement": "pKd", "setting": "Galectin-3", "result": 5.06},
      {"measurement": "pKd", "setting": "Galectin-1", "result": 7.32}
    ]},
    {"smiles": "CO[C@@H]1[C@@H](n2cc(-c3csc(N)n3)nn2)[C@@H](O)[C@@H](CO)O[C@@H]1Sc1ccc(C(F)(F)F)c(Cl)c1", "note": "[Example 30, 3-Chloro-4-(trifluoromethyl)phenyl 3-[4-(2-aminothiazol-4-yl)-1H-1,2,3-triazol-1-yl]-3-deoxy-2-O-methyl-1-thio-α-D-galactopyranoside]", "values": [
      {"measurement": "pKd", "setting": "Galectin-3", "result": 5.60},
      {"measurement": "pKd", "setting": "Galectin-1", "result": 6.92}
    ]},
    {"smiles": "CO[C@@H]1[C@@H](n2cc(-c3csc(N)n3)nn2)[C@@H](O)[C@@H](CO)O[C@@H]1Sc1cccc(Cl)c1", "note": "[Example 31, 3-Chlorophenyl 3-[4-(2-aminothiazol-4-yl)-1H-1,2,3-triazol-1-yl]-3-deoxy-2-O-methyl-1-thio-α-D-galactopyranoside]", "values": [
      {"measurement": "pKd", "setting": "Galectin-3", "result": 5.25},
      {"measurement": "pKd", "setting": "Galectin-1", "result": 6.70}
    ]},
    {"smiles": "Cc1sc(N)nc1-c1cn(C2C(O)[C@@H](Sc3cnc(C(F)(F)F)c(Br)c3)OC(CO)[C@@H]2O)nn1", "note": "(stereo partly shown) [Example 33]", "values": [
      {"measurement": "pKd", "setting": "Galectin-3", "result": 5.52},
      {"measurement": "pKd", "setting": "Galectin-1", "result": 6.30}
    ]},
    {"smiles": "CO[C@@H]1[C@@H](n2cc(-c3nc(C)cs3)nn2)[C@@H](O)[C@@H](CO)O[C@@H]1Sc1cc(Br)cnc1C#N", "note": "[Example 34, 5-Bromo-2-cyanopyridin-3-yl 3-deoxy-3-[4-(4-methylthiazol-2-yl)-1H-1,2,3-triazol-1-yl]-2-O-methyl-1-thio-α-D-galactopyranoside]", "values": [
      {"measurement": "pKd", "setting": "Galectin-3", "result": 5.85},
      {"measurement": "pKd", "setting": "Galectin-1", "result": 7.28}
    ]},
    {"smiles": "CO[C@@H]1[C@@H](n2cc(-c3nc(C)cs3)nn2)[C@@H](O)[C@@H](CO)O[C@@H]1Sc1cc(C)cnc1C#N", "note": "[Example 35, 2-Cyano-5-methylpyridin-3-yl 3-deoxy-3-[4-(4-methylthiazol-2-yl)-1H-1,2,3-triazol-1-yl]-2-O-methyl-1-thio-α-D-galactopyranoside]", "values": [
      {"measurement": "pKd", "setting": "Galectin-3", "result": 5.05},
      {"measurement": "pKd", "setting": "Galectin-1", "result": 6.31}
    ]},
    {"smiles": "CO[C@@H]1[C@@H](n2cc(-c3nc(Cl)cs3)nn2)[C@@H](O)[C@@H](CO)O[C@@H]1Sc1cc(C)cnc1C#N", "note": "[Example 36, 2-Cyano-5-methylpyridin-3-yl 3-[4-(4-chlorothiazol-2-yl)-1H-1,2,3-triazol-1-yl]-3-deoxy-2-O-methyl-1-thio-α-D-galactopyranoside]", "values": [
      {"measurement": "pKd", "setting": "Galectin-3", "result": 6.15},
      {"measurement": "pKd", "setting": "Galectin-1", "result": 6.72}
    ]},
    {"smiles": "C#Cc1cncc(S[C@H]2O[C@H](CO)[C@H](O)[C@H](n3cc(-c4nc(Cl)cs4)nn3)[C@H]2OC)c1", "note": "[Example 37, 5-Ethynylpyridin-3-yl 3-[4-(4-chlorothiazol-2-yl)-1H-1,2,3-triazol-1-yl]-3-deoxy-2-O-methyl-1-thio-α-D-galactopyranoside]", "values": [
      {"measurement": "pKd", "setting": "Galectin-3", "result": 6.41},
      {"measurement": "pKd", "setting": "Galectin-1", "result": 6.70}
    ]},
    {"smiles": "COC1C(n2cc(-c3csc(N)n3)nn2)[C@@H](O)C(CO)O[C@@H]1Sc1cc(Cl)cnc1N1CC2(COC2)C1", "note": "(stereo partly drawn) [Example 38, 5-Chloro-2-{N-(2-oxa)-6-azaspiro[3.3]heptanyl}-pyridin-3-yl 3-[4-(2-aminothiazol-4-yl)-1H-1,2,3-triazol-1-yl]-3-deoxy-2-O-methyl-1-thio-α-D-galactopyranoside]", "values": [
      {"measurement": "pKd", "setting": "Galectin-3", "result": 5.21},
      {"measurement": "pKd", "setting": "Galectin-1", "result": 7.00}
    ]},
    {"smiles": "CO[C@@H]1[C@@H](n2cc(-c3csc(N)n3)nn2)[C@@H](O)[C@@H](CO)O[C@@H]1Sc1ccc(C#N)c(Cl)c1", "note": "[Example 39, 3-Chloro-4-cyanophenyl 3-[4-(2-aminothiazol-4-yl)-1H-1,2,3-triazol-1-yl]-3-deoxy-2-O-methyl-1-thio-α-D-galactopyranoside]", "values": [
      {"measurement": "pKd", "setting": "Galectin-3", "result": 5.44},
      {"measurement": "pKd", "setting": "Galectin-1", "result": 7.15}
    ]},
    {"smiles": "CO[C@@H]1[C@@H](n2cc(-c3csc(N)n3)nn2)[C@@H](O)[C@@H](CO)O[C@@H]1Sc1cncc(C#N)c1", "note": "[Example 40, 5-Cyanopyridin-3yl 3-[4-(2-aminothiazol-4-yl)-1H-1,2,3-triazol-1-yl]-3-deoxy-2-O-methyl-1-thio-α-D-galactopyranoside]", "values": [
      {"measurement": "pKd", "setting": "Galectin-3", "result": 4.97},
      {"measurement": "pKd", "setting": "Galectin-1", "result": 6.62}
    ]},
    {"smiles": "OC[C@H]1O[C@H](Sc2cc(Cl)c(F)c(Cl)c2)C[C@@H](n2cc(-c3csc(O)n3)nn2)[C@H]1O", "note": "[Example 41, 3,5-Dichloro-4-fluorophenyl 2,3-dideoxy-3-[4-(2-hydroxythiazol-4-yl)-1H-1,2,3-triazol-1-yl]-1-thio-α-D-galactopyranoside]", "values": [
      {"measurement": "pKd", "setting": "Galectin-3", "result": 5.03},
      {"measurement": "pKd", "setting": "Galectin-1", "result": 6.89}
    ]},
    {"smiles": "N#Cc1ccc(S[C@@H]2C[C@@H](n3cc(-c4csc(N)n4)nn3)[C@@H](O)[C@@H](CO)O2)cc1Cl", "note": "[Example 42, 3-Chloro-4-cyanophenyl 3-[4-(2-aminothiazol-4-yl)-1H-1,2,3-triazol-1-yl]-2,3-dideoxy-1-thio-α-D-galactopyranoside]", "values": [
      {"measurement": "pKd", "setting": "Galectin-3", "result": 4.99},
      {"measurement": "pKd", "setting": "Galectin-1", "result": 6.14}
    ]},
    {"smiles": "N#Cc1ccc(Cl)cc1S[C@@H]1C[C@@H](n2cc(-c3nc(Cl)cs3)nn2)[C@@H](O)[C@@H](CO)O1", "note": "[Example 43, 5-Chloro-2-cyanophenyl 3-[4-(4-chlorothiazol-2-yl)-1H-1,2,3-triazol-1-yl]-2,3-dideoxy-1-thio-α-D-galactopyranoside]", "values": [
      {"measurement": "pKd", "setting": "Galectin-3", "result": 5.92},
      {"measurement": "pKd", "setting": "Galectin-1", "result": 6.89}
    ]},
    {"smiles": "CO[C@@H]1[C@@H](n2cc(-c3csc(N)n3)nn2)[C@@H](O)[C@@H](CO)O[C@@H]1Sc1cnc(C(F)(F)F)c(C#N)c1", "note": "[Example 44, 3-Cyano-2-(trifluoromethyl)pyridin-5-yl 3-[4-(2-aminothiazol-4-yl)-1H-1,2,3-triazol-1-yl]-3-deoxy-2-O-methyl-1-thio-α-D-galactopyranoside]", "values": [
      {"measurement": "pKd", "setting": "Galectin-3", "result": 4.78},
      {"measurement": "pKd", "setting": "Galectin-1", "result": 6.44}
    ]},
    {"smiles": "COC1C(n2cc(-c3nc(Cl)cs3)nn2)[C@@H](O)C(CO)O[C@@H]1Sc1cc(Cl)cnc1C(=O)N1CCC1", "note": "(stereo partly drawn) [Example 45, 5-Chloro-2-(N-azetidinylcarbamoyl)-3-pyridinyl 3-[4-(4-chlorothiazol-2-yl)-1H-1,2,3-triazol-1-yl]-3-deoxy-2-O-methyl-1-thio-α-D-galactopyranoside]", "values": [
      {"measurement": "pKd", "setting": "Galectin-3", "result": 7.13},
      {"measurement": "pKd", "setting": "Galectin-1", "result": 7.66}
    ]},
    {"smiles": "CO[C@@H]1[C@@H](n2cc(-c3nc(C)cs3)nn2)[C@@H](O)[C@@H](CO)O[C@@H]1Sc1cc(Cl)cnc1-c1ccccn1", "note": "[Example 46, 5-Chloro-2-(pyridin-2-yl)pyridin-3-yl 3-deoxy-3-[4-(4-methylthiazol-2-yl)-1H-1,2,3-triazol-1-yl]-2-O-methyl-1-thio-α-D-galactopyranoside]", "values": [
      {"measurement": "pKd", "setting": "Galectin-3", "result": 5.60},
      {"measurement": "pKd", "setting": "Galectin-1", "result": 7.46}
    ]},
    {"smiles": "C#Cc1cncc(S[C@H]2O[C@H](CO)[C@H](O)[C@H](n3cc(-c4nccs4)nn3)[C@H]2OC)c1", "note": "[Example 47, 5-Ethynylpyridin-3-yl 3-deoxy-2-O-methyl-3-[4-(2-thiazolyl)-1H-1,2,3-triazol-1-yl]-1-thio-α-D-galactopyranoside]", "values": [
      {"measurement": "pKd", "setting": "Galectin-3", "result": 5.49},
      {"measurement": "pKd", "setting": "Galectin-1", "result": 6.24}
    ]}
  ]
}
